# Data as given in patent publication US20090291095A1, “NANOEMULSION ADJUVANTS” (The Regents of the University of Michigan, priority 2008, published 2009).
# System: virus
# Experiment: Virus inactivation by BCTP component
# Details: concentrations equivalent to 11% BCTP
substance,measurement,value
TRITON-X100,ability to inactivate a virus,less ability to inactivate a virus
